The values that follow are results of earlier work, collected in US10961240B2, “Formulations of a compound modulating kinases” (Plexxikon Inc., priority 2017, dated 2021).

The test system of data set [1] is microglia. The following applies: sustained after intracerebral hemorrhage.
In data set [2] the test system is TGCT. Particulars: phase III.
The subject of data set [3] is Hodgkin Lymphoma. The following applies: heavily pretreated patient cohort.
For data set [4], the system named is neurofibromatosis affected mice.
In data set [5] the test system is MPNST xenograft.
Data set [6] has as its system mouse melanoma models. The following applies: with tumor-specific CD8 T cells.

As for `FC(F)(F)c1ccc(CNc2ccc(Cc3c[nH]c4ncc(Cl)cc34)cn2)cn1` [Compound I], the microglia depletion entry in data set [1] is listed as “effectively depleted microglia”. Moreover, the “primary endpoint: tumor response measured by tumor size reduction” value in data set [2] is “met its primary endpoint”. In data set [3], the efficacy entry is “modest efficacy” and the safety profile result is “manageable safety profile”. Moreover, in data set [4], the bone loss entry was “prevented bone loss”. The tumor growth result in data set [5] (MPNST xenograft) is given as “significant suppression of tumor growth”. The “blockade of receptor tyrosine kinases” value in data set [5] (MPNST xenograft samples) was “sustained blockade of c-Kit, c-Fms and PDGFRβ”. Moreover, the “control of tumor outgrowth” value in data set [6] is reported as “strongly promoted the control of tumor outgrowth”.
